In ChEMBL document CHEMBL1122349, “Mannich bases of 4-phenyl-3-buten-2-one: a new class of antiherpes agent” (1983) one finds T/C, Average lesion score and Reduction data, which are given here for 29 molecules.

Each structure is given as a SMILES string. “And” between values parts separate entries of the source, which are not always exact repeats. Equal values may be shown once.

The term T/C denotes the result in the treated group divided by that in the control group, in per cent.

For assay [1], the system named is Human alphaherpesvirus 1. The assay can be described thus: Antiherpes (Type-1) activity in mouse paralysis model expressed as animals paralyzed treated/percent animals paralyzed control (% T/C). The class given is functional, herpes simplex virus.
The test system of assay [2] is Human alphaherpesvirus 1. The assay can be described thus: Average lesion score in hairless mouse model infected with HVH-1(antiherpes activity). It counts as functional, herpes simplex virus.
The species entered for assay [3] is Mus musculus. The assay can be described thus: Reduction of lesion severity, in hairless mouse test against herpes type-1,at 5% dose in 1.4% aq.polyvinyl alcohol. The class given is functional.
The subject of assay [4] is Human alphaherpesvirus 1. As to the kind of experiment: Reduction of lesion severity, in hairless mouse test against herpes type-1,at 3% dose in 1.4% aq.polyvinyl alcohol. The class given is functional, herpes simplex virus.
Assay [5] has as its system Human alphaherpesvirus 1. As to the kind of experiment: Average lesion score in hairless mouse test against Herpes type-1 at dose of 3% in 1.4% aq.polyvinyl alcohol. It counts as functional, herpes simplex virus.
Assay [6] deals with Human alphaherpesvirus 1. The assay can be described thus: Reduction of lesion (from control), in hairless mouse model infected with HVH-1(antiherpes activity). Details: concentration or dose not given beside the values. The class given is functional, herpes simplex virus.
Assay [7] deals with Human alphaherpesvirus 1. The assay can be described thus: Reduction of lesion severity, in hairless mouse test against herpes type-1,at 0.75% dose in 1.4% aq.polyvinyl alcohol. It counts as functional, herpes simplex virus.
The species named for assay [8] is Mus musculus. The assay can be described thus: Reduction of lesion severity, in hairless mice test against herpes type-2,at 5% dose in 1.4% aq.polyvinyl alcohol. It counts as functional.
Assay [9] has as its system Human alphaherpesvirus 1. As to the kind of experiment: Average lesion score in hairless mouse test against Herpes type-1 at dose of 0.75% in 1.4% aq.polyvinyl alcohol. It counts as functional, herpes simplex virus.
The species named for assay [10] is Mus musculus. As to the kind of experiment: Average lesion score in hairless mouse test against Herpes type-1 at dose of 5% in 1.4% aq.polyvinyl alcohol. It counts as functional.
The species entered for assay [11] is Mus musculus. The assay can be described thus: Reduction of lesion severity, in hairless mice test against herpes type-2,at 0.37% dose in 1.4% aq.polyvinyl alcohol. The class given is functional.
The species entered for assay [12] is Mus musculus. As to the kind of experiment: Reduction of lesion severity, in hairless mice test against herpes type-2,at 2% dose in 1.4% aq.polyvinyl alcohol. The class given is functional.
For assay [13], the species on record is Mus musculus. As to the kind of experiment: Reduction of lesion severity, in hairless mouse test against herpes type-1,at 0.37% dose in 1.4% aq.polyvinyl alcohol. The class given is functional.
The species entered for assay [14] is Mus musculus. As to the kind of experiment: Average lesion score in hairless mouse test against Herpes type-1 at dose of 1.5% in 1.4% aq.polyvinyl alcohol. The class given is functional.
Assay [15] is filed under the species Mus musculus. As to the kind of experiment: Reduction of lesion severity, in hairless mice test against herpes type-2,at 0.75% dose in 1.4% aq.polyvinyl alcohol. It counts as functional.
The species entered for assay [16] is Mus musculus. As to the kind of experiment: Reduction of lesion severity, in hairless mice test against herpes type-2,at 1.5% dose in 1.4% aq.polyvinyl alcohol. The class given is functional.
The species named for assay [17] is Mus musculus. As to the kind of experiment: Average lesion score in hairless mouse test against Herpes type-1 at dose of 0.37% in 1.4% aq.polyvinyl alcohol. The class given is functional.
The species entered for assay [18] is Mus musculus. The assay can be described thus: Reduction of lesion severity, in hairless mouse test against herpes type-1,at 1.5% dose in 1.4% aq.polyvinyl alcohol. It counts as functional.

The molecule `CSc1ccc(/C=C/C(=O)CCN2CCOCC2)cc1.Cl` came in with a T/C in the assay on Human alphaherpesvirus 1 [1] of 12%.
With `O=C(O)CP(=O)([O-])[O-].[Na+].[Na+]` [DISODIUM CARBOXYMETHYLPHOSPHONATE], the Average lesion score in the assay on Human alphaherpesvirus 1 [2] turned out to be 0.33; in the assay with Human alphaherpesvirus 1 [5] it was 0.83; in the assay on Human alphaherpesvirus 1 [9] it was 2.5; in the assay filed under Mus musculus [10], 0.33. Moreover, the Reduction in the assay listed under Mus musculus [3] is recorded as 87%; in the assay on Human alphaherpesvirus 1 [4], 69%; in the assay on Human alphaherpesvirus 1 [6], 74%; in the assay with Human alphaherpesvirus 1 [7], 9%; in the assay listed under Mus musculus [8], 78%. In addition, the T/C in the assay with Human alphaherpesvirus 1 [1] is 24% and 61%.
In turn, `CN(C)CCC(=O)/C=C/c1ccccc1.Cl` had an Average lesion score with Human alphaherpesvirus 1 [2] of 1.8. For the same molecule, in the assay with Human alphaherpesvirus 1 [6], the Reduction was 30%.
In the assay on Human alphaherpesvirus 1 [1], `COc1ccc(/C=C/C(=O)CCN2CCOCC2)cc1.Cl` came in with a T/C of 25%.
Take `COc1cccc(/C=C/C(=O)CCN2CCOCC2)c1.Cl`: the T/C in the assay with Human alphaherpesvirus 1 [1] came out at 0%.
For `Cl.O=C(/C=C/c1ccccc1)CCN1CCOCC1`, the Reduction in the assay listed under Mus musculus [11] was 70%; in the assay filed under Mus musculus [12] it was 85%; in the assay listed under Mus musculus [13], 67%; in the assay with Human alphaherpesvirus 1 [4], 87%; in the assay filed under Mus musculus [15], 78%; in the assay filed under Mus musculus [16] it was 78%. Further, the values for the Reduction in the assay on Human alphaherpesvirus 1 [6], in the assay on Human alphaherpesvirus 1 [7] and in the assay filed under Mus musculus [18] were 94%, 67% and 80%, respectively. In addition, the Average lesion score in the assay with Human alphaherpesvirus 1 [2] came out at 0.17; in the assay listed under Mus musculus [14], 0.55; in the assay listed under Mus musculus [17], 0.83; in the assay on Human alphaherpesvirus 1 [5] it was 0.33; in the assay with Human alphaherpesvirus 1 [9], 0.83. The same molecule showed a T/C in the assay with Human alphaherpesvirus 1 [1] of 11%.
`CS(=O)(=O)c1ccc(/C=C/C(=O)CCN2CCOCC2)cc1.Cl`: in the assay on Human alphaherpesvirus 1 [1], the T/C stood at 12%.
On the same count and under the same terms, the result for `Cl.N#Cc1ccc(/C=C/C(=O)CCN2CCOCC2)cc1` reads 24%; that for `O=C(CCc1ccc(Cl)c(Cl)c1)CCN1CCOCC1`, 50%; that for `Cl.O=C(/C=C/c1cccc(C(F)(F)F)c1)CCN1CCOCC1`, 11%.
Molecule `Cl.OC(/C=C/c1ccccc1)CCN1CCOCC1` (stereo not drawn) had a T/C in the assay with Human alphaherpesvirus 1 [1] of 88%.
`Cl.O=C(/C=C/c1ccc(O)cc1)CCN1CCOCC1` gave a T/C in the assay on Human alphaherpesvirus 1 [1] of 63%.
Regarding `O=C(/C=C/c1ccccc1)CCNc1ccccc1`, in the assay with Human alphaherpesvirus 1 [2], the Average lesion score was 2.67. Further, the Reduction in the assay with Human alphaherpesvirus 1 [6] is listed as 9%.
`CC(C)(C[N+](C)(C)C)C(=O)/C=C/c1ccccc1.[I-]`: the Average lesion score in the assay on Human alphaherpesvirus 1 [2] is 2.33. Besides, the Reduction in the assay with Human alphaherpesvirus 1 [6] is given as 13%.
The molecule `CCC[S+](C)CCC(=O)/C=C/c1ccccc1.[I-]` (stereo not drawn) came in with an Average lesion score with Human alphaherpesvirus 1 [2] of 0.67. Besides, the Reduction in the assay with Human alphaherpesvirus 1 [6] was found to be 74%.
`Cl.O=C(/C=C/c1ccc(Cl)cc1)CCN1CCOCC1` displayed a T/C with Human alphaherpesvirus 1 [1] of 12%.
The molecule `CCCSCCC(=O)/C=C/c1ccccc1` returned an Average lesion score in the assay with Human alphaherpesvirus 1 [2] of 2.8. Also, the Reduction in the assay on Human alphaherpesvirus 1 [6] amounted to 0%.
Molecule `Cl.O=C(/C=C/c1ccc2c(c1)OCO2)CCN1CCOCC1` displayed a T/C in the assay on Human alphaherpesvirus 1 [1] of 14%.
The molecule `C[S+]([O-])CCC(=O)/C=C/c1ccccc1` (stereo not drawn) showed an Average lesion score with Human alphaherpesvirus 1 [2] of 1.3. This molecule yielded a Reduction with Human alphaherpesvirus 1 [6] of 48%.
`COc1cccc(/C=C/C(=O)CC[N+](C)(C)C)c1.[I-]` displayed an Average lesion score in the assay on Human alphaherpesvirus 1 [2] of 0.33. In the assay with Human alphaherpesvirus 1 [6], this molecule had a Reduction of 86%.
Take `Cl.O=C(/C=C/c1ccc(Cl)c(Cl)c1)CCN1CCOCC1`: the Reduction in the assay listed under Mus musculus [13] is 67%; with Human alphaherpesvirus 1 [4], 80%; with Human alphaherpesvirus 1 [7], 80%; in the assay filed under Mus musculus [18], 80%. In addition, the Average lesion score in the assay listed under Mus musculus [14] was found to be 0.5; in the assay listed under Mus musculus [17], 0.83; with Human alphaherpesvirus 1 [5], 0.5; with Human alphaherpesvirus 1 [9] it was 0.5. Also, the T/C in the assay on Human alphaherpesvirus 1 [1] is listed as 0%.
For `C[S+](C)CCC(=O)/C=C/c1ccccc1.[I-]`, the Reduction in the assay listed under Mus musculus [13] worked out at 76%; in the assay with Human alphaherpesvirus 1 [4], 88%; in the assay with Human alphaherpesvirus 1 [6], 82%; in the assay on Human alphaherpesvirus 1 [7], 76%; in the assay listed under Mus musculus [18], 82%. Also, the Average lesion score in the assay with Human alphaherpesvirus 1 [2] turned out to be 0.5; in the assay filed under Mus musculus [14], 0.5; in the assay listed under Mus musculus [17], 0.67; with Human alphaherpesvirus 1 [5], 0.33; with Human alphaherpesvirus 1 [9], 0.67.
`Cc1ccc(/C=C/C(=O)CCN2CCOCC2)cc1.Cl` came in with a T/C with Human alphaherpesvirus 1 [1] of 38%.
With `C[N+](C)(C)CCC(=O)/C=C/c1ccccc1.[I-]`, the Reduction in the assay filed under Mus musculus [13] is on record as 76%; with Human alphaherpesvirus 1 [4] it was 88%; in the assay on Human alphaherpesvirus 1 [6], 64%; with Human alphaherpesvirus 1 [7] it was 76%; in the assay filed under Mus musculus [18] it was 82%. Also, the Average lesion score amounted to 1 in the assay with Human alphaherpesvirus 1 [2]; 0.5 in the assay listed under Mus musculus [14]; 0.67 in the assay filed under Mus musculus [17]; 0.33 in the assay with Human alphaherpesvirus 1 [5]; 0.67 in the assay with Human alphaherpesvirus 1 [9].
The molecule `CCOP(=O)(CCC(=O)/C=C/c1ccccc1)OCC` came in with an Average lesion score in the assay with Human alphaherpesvirus 1 [2] of 2.3. Further, the Reduction in the assay on Human alphaherpesvirus 1 [6] amounted to 10%.
The molecule `CC(C[N+](C)(C)C)C(=O)/C=C/c1ccccc1.[I-]` (stereo not drawn) gave an Average lesion score in the assay on Human alphaherpesvirus 1 [2] of 0.33. Further, the Reduction in the assay on Human alphaherpesvirus 1 [6] is recorded as 89%.
In the assay with Human alphaherpesvirus 1 [1], `Cl.O=C(/C=C/c1cccc([N+](=O)[O-])c1)CCN1CCOCC1` showed a T/C of 47%.
`O=C(/C=C/c1ccccc1)CCSc1ccccc1` returned an Average lesion score in the assay with Human alphaherpesvirus 1 [2] of 2.5. Besides, the Reduction in the assay on Human alphaherpesvirus 1 [6] was 10%.
`Cl.O=C(/C=C/c1c(Cl)cccc1Cl)CCN1CCOCC1`: the T/C in the assay with Human alphaherpesvirus 1 [1] is given as 14%.
